These are literature values, as cited in patent publication US20090227666A1, “Enhancing Disease Resistance In An Animal” (Hill's Pet Nutrition, Inc., priority 2007, published 2009).

The subject of this data set is CD8+ T cell population. The conditions noted are these: moderate (101 mg/kg of food) or high (447 mg/kg of food) versus low-normal (17 mg/kg of food).

For `CC(=O)Oc1c(C)c(C)c2c(c1C)CCC(C)(CCC[C@H](C)CCC[C@H](C)CCCC(C)C)O2` (stereo partly drawn) [α-tocopheryl acetate], the “percentages of CD8+ cells” value was “increased percentages of CD8+ cells”.
